The record followed here is patent US11040981B2, “Pyrrolotriazine compounds and methods of inhibiting TAM kinases” (Syros Pharmaceuticals, Inc., priority 2017, dated 2021).

One test has as its target T1, AXL (Homo sapiens, UniProt P30530).
T1 sequence (P30530 26-894): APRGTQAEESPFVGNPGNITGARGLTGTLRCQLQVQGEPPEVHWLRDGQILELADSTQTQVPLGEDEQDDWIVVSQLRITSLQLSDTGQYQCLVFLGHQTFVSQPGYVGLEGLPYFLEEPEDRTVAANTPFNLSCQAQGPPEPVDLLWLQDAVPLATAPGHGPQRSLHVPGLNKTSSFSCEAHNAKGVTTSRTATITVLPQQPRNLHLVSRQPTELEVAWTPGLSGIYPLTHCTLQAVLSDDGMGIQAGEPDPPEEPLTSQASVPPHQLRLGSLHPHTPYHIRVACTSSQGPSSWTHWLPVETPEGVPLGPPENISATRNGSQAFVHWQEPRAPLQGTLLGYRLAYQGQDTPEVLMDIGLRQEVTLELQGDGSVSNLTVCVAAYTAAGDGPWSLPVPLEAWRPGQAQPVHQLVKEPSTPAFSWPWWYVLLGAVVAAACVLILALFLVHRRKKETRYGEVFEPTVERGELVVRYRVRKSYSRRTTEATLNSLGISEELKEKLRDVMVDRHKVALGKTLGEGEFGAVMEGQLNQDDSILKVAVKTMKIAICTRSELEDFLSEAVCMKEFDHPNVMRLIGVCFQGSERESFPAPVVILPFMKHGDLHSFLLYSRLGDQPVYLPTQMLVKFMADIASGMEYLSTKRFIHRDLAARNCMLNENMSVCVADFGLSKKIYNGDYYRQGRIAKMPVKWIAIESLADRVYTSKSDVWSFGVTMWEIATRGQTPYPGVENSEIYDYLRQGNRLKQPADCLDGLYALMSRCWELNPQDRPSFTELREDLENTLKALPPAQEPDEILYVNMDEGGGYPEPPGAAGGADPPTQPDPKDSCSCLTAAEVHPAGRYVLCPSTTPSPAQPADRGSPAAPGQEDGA
The test is described as follows: TR-FRET kinase activity assay, AXL. Conditions: ATP at Km, 60 minutes. In kind it is biochemical. The gist of the method:
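Each kinase phosphorylated a fluorescent-labelled tyrosine peptide in 50 mM HEPES pH 7.5, 10 mM MgCl2, 1 mM EGTA, 0.01% Brij 35, 1 mM DTT at RT, with ATP at Km for that enzyme. After 60 min, EDTA quench and Eu-anti-phosphotyrosine antibody (30 min, dark); IC50 from TR-FRET decrease.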
(In general: TR-FRET usually uses a lanthanide donor and a delayed reading to cut background.)

A further test addresses T2, TYRO3 (Homo sapiens, UniProt Q06418).
T2 sequence (Q06418 41-890): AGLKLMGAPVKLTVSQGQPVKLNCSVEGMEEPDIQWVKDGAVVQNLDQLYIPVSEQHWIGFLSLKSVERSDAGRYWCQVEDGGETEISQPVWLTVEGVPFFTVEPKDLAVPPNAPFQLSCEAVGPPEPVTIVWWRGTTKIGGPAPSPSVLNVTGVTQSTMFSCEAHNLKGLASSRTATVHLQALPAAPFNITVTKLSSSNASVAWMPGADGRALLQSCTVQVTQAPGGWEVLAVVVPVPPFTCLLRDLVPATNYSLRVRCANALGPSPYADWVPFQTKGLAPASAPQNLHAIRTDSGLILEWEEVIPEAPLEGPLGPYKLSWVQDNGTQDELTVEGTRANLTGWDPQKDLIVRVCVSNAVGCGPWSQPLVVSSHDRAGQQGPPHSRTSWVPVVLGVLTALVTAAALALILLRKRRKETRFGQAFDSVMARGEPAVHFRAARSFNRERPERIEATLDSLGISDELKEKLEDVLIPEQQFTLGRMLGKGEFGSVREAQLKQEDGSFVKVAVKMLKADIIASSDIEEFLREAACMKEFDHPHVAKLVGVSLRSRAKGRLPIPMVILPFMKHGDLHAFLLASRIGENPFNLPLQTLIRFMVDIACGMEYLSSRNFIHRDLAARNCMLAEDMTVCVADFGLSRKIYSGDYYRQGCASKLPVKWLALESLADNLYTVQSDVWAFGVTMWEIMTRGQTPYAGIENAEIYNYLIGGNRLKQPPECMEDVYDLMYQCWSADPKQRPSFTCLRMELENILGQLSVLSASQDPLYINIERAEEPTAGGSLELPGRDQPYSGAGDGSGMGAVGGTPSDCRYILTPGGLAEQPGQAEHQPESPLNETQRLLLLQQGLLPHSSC
The test is described as follows: TR-FRET kinase activity assay, TYRO3. The test is classed as biochemical. Conditions: ATP at Km, 60 minutes. The protocol: IC50 values for compound inhibition of AXL, FLT3, MERTK and TYRO3 activity were determined by using a TR-FRET activity assay. A polypeptide substrate with a fluorescent label is phosphorylated on a tyrosine by each enzyme, where the now phosphorylated product is bound by a Europium-labeled antibody specific to that phosphorylation site. The proximity between the antibody and the substrate gives a signal known as TR-FRET. As the enzyme is inhibited by compound, less phosphorylated peptide product is made causing a decrease in overall signal.
Activity assays were performed in a 384-well, small volume, black microplates in an active enzyme volume of 10 μL and final developed volume of 20 μL. Final assay conditions are 50 mM HEPES pH 7.5, 10 mM MgCl2, 1 mM EGTA, 0.01% Brij 35 and 1 mM DTT all at RT. Enzyme, substrate labeled peptide and compound are mixed, and then the reaction is initiated with the addition of ATP at Km concentration for each enzyme. The reaction is allowed to run 60 minutes and then quenched with a 12.5 mM EDTA (ethylenediamine tetraacetic acid) solution. The plate is then developed with the addition of Europium labeled antibody for a final volume of 20 μL and is then incubated for 30 minutes in darkness. Plates are read in a Pherastar plate reader. Data is analyzed in GraphPad PRISM.
The results of these assays are shown in Table 1, below, wherein “No.” designates compound number (FIG. 1); “A” represents a value of ≤100 nM; “B” a value of >100 nM and ≤1 μM; “C” a value of >1 μM and ≤10 μM; “D” a value of >10 μM; “ND” is not determined. The ratio of Mer to FLT3 is calculated as follows: FLT3 IC50/Mer IC50. “+” represents a ratio of >2.0 and <10; “++” represents a ratio of between 10 and 100; and “+++” represents a ratio of >100.

Broadly, the IC50 is the midpoint of a concentration-inhibition curve. High values mean weaker potency, low ones greater potency.

Consider `CCCCCC(C)Nc1ncc2c(C3=CCC(C(=O)N4CCOCC4)CC3)cc(C3CCC(O)CC3)n2n1` (mixture of isomers) [Compound 110], for which the IC50 on AXL and against TYRO3 was at most 100 nM each time.
Take `COC[C@H](C)Nc1ncc2c(-c3cncc(F)c3)cc([C@H]3CC[C@H](O)CC3)n2n1` [Compound 195]: the IC50 against AXL is 100 to 1000 nM; at TYRO3, at most 100 nM.
In the case of `COCC[C@@H](C)Nc1ncc2c(-c3ccc(CN4CCOCC4)cc3)cc([C@H]3CC[C@H](O)CC3)n2n1` [Compound 212], the IC50 against AXL and against TYRO3 was 100 to 1000 nM each time.
On to `COC[C@H](C)Nc1ncc2c(-c3cncc(C(=O)N4CCCC4)c3)cc([C@H]3CC[C@H](O)CC3)n2n1` [Compound 232], for which the IC50 on AXL was 100 to 1000 nM; at TYRO3, at most 100 nM.
Taken in the same sequence, the figures for `COC[C@H](C)Nc1ncc2c(-c3ccc(C(=O)NC(C)C)nc3)cc([C@H]3CC[C@H](O)CC3)n2n1` [Compound 228, 5-(7-((1r,4S)-4-hydroxycyclohexyl)-2-(((S)-1-methoxypropan-2-yl)amino)pyrrolo[2,1-f][1,2,4]triazin-5-yl)-N-isopropylpicolinamide] were 100 to 1000 nM and at most 100 nM.
Taken in the same sequence, the figures for `COC[C@H](C)Nc1ncc2c(-c3ccn(C)n3)cc([C@H]3CC[C@H](O)CC3)n2n1` [Compound 208] were 100 to 1000 nM and at most 100 nM.
Taken in the same sequence, the figures for `COCCn1cc(-c2cc([C@H]3CC[C@H](O)CC3)n3nc(N[C@@H](C)CC(F)(F)F)ncc23)cn1` [Compound 262] were at most 100 nM and at most 100 nM.
In the case of `CCCCC[C@H](C)Nc1ncc2c(-c3ccc(CN4CCN(C)CC4)cc3)cc([C@H]3CC[C@H](O)CC3)n2n1` [Compound 104], the IC50 against AXL and at TYRO3 was at most 100 nM each time.
Regarding `CNC(=O)c1cncc(-c2cc([C@H]3CC[C@H](O)CC3)n3nc(N[C@@H](C)COC)ncc23)c1` [Compound 245], the figures for the IC50 against AXL and against TYRO3 were 100 to 1000 nM and at most 100 nM, respectively.
Taken in the same sequence, the figures for `COCC(C)Nc1ncc2c(-c3cnn(C4COC4)c3)cc(C3CCC(O)CC3)n2n1` (centres unmarked) [Compound 221] were at most 100 nM and at most 100 nM.
Taken in the same sequence, the figures for `COCC(C)Nc1ncc2c(-c3cccc(C)n3)cc(C3CCC(O)CC3)n2n1` (centres unmarked) [Compound 253] were 1000 to 10000 nM and at most 100 nM.
Taken in the same sequence, the figures for `C[C@@H](CC1CC1)Nc1ncc2c(-c3ccc(CN4CCN(C)CC4)cc3)cc([C@H]3CC[C@H](O)CC3)n2n1` [Compound 216] were at most 100 nM and at most 100 nM.
Regarding `COC[C@H](C)Nc1ncc2c(-c3ccc(C(=O)N4CCOCC4)nc3)cc([C@H]3CC[C@H](O)CC3)n2n1` [Compound 227], the IC50 on AXL is 100 to 1000 nM; against TYRO3, at most 100 nM.
As for `COC[C@H](C)Nc1ncc2c(-c3ccnc(N4CCOCC4)c3)cc([C@H]3CC[C@H](O)CC3)n2n1` [Compound 259], the half-maximal inhibitory concentration (IC50) at AXL and on TYRO3 was at most 100 nM each time.
On to `COC[C@H](C)Nc1ncc2c(-c3cnn(Cc4cccnc4)c3)cc([C@H]3CC[C@H](O)CC3)n2n1` [Compound 220], for which the IC50 at AXL and against TYRO3 was at most 100 nM in each case.
Consider `COC[C@H](C)Nc1ncc2c(-c3cnn(C(C)(C)CO)c3)cc([C@H]3CC[C@H](O)CC3)n2n1` [Compound 265], for which the IC50 against AXL and on TYRO3 was at most 100 nM each time.
As to `COC[C@H](C)Nc1ncc2c(-c3cnn(CC4(C#N)CC4)c3)cc([C@H]3CC[C@H](O)CC3)n2n1` [Compound 266], the IC50 on AXL and at TYRO3 was at most 100 nM each time.
In the case of `C[C@@H](COC(F)F)Nc1ncc2c(-c3cnn(C4COC4)c3)cc([C@H]3CC[C@H](O)CC3)n2n1` [Compound 270], the IC50 at AXL and on TYRO3 was at most 100 nM each time.
With `Cc1cc(-c2cc([C@H]3CC[C@H](O)CC3)n3nc(N[C@@H](C)CC(F)(F)F)ncc23)cnn1` [Compound 268], the IC50 against AXL was 100 to 1000 nM; on TYRO3 it was at most 100 nM.
